Tests used:
[1] = test system: HRAS(G12V) transformed NIH3T3 fibroblasts; assay: NIH3T3 HRAS(G12V) tumors in nude mice; assay type: in vivo, BALB/c nu/nu mice; conditions: 1.0, 3.0 or 10 mg/kg daily, oral gavage
Excerpt: FIG. 8: Anti-tumorigenic activity of Pz-1 in nude mice implanted with RET/C634Y or HRAS(G12V) transformed NIH3T3 fibroblasts. […] Average tumor volume (±SD: standard deviations) is reported. NIH3T3 RET/C634Y (200,000 cells) or NIH3T3 HRAS/G12V (50,000 cells) were inoculated subcutaneously into dorsal portion (both sides) of 6-week-old female BALB/c nu/nu mice (n. 31 mice/cell line) (Jackson Laboratories, Bar Harbor, Me.). After 4 days, before tumors had appeared, animals were randomly assigned to receive Pz-1 (1.0, 3.0 or 10 mg/kg daily) (23 mice/cell line: 8 mice/group for 1.0 and 3.0 mg/kg daily doses and 7 mice for 10 dose mg/kg daily) or vehicle control (8 mice) by oral gavage. Tumor diameters were measured with calipers every 1-2 days. Tumor volumes (V) were calculated by the rotational ellipsoid formula and reported as average volumes±standard deviations. […]
TT cells (7.5×10^6/mouse) were inoculated subcutaneously into dorsal portions (both sides) of 39 SCID mice (Jackson Laboratories, Bar Harbor, Me.). […] Tumor diameters were measured with callipers every week. Tumor volumes (V) were calculated by the rotational ellipsoid formula: V=A×B^2/2 (A=axial diameter; B=rotational diameter) and reported as average volumes±standard deviations. […] Anti-tumorigenic activity of Pz-1 was also assessed in nude mice implanted with RET/C634Y or HRAS(G12V) transformed NIH3T3 fibroblasts. […]

CYP3A4 = CYP3A4 (Homo sapiens, UniProt P08684); assay: CYP inhibition; assay type: in vitro ADME; conditions: read-out: CYP 3A4 IC50
CYP3A4, sequence (P08684 whole entry): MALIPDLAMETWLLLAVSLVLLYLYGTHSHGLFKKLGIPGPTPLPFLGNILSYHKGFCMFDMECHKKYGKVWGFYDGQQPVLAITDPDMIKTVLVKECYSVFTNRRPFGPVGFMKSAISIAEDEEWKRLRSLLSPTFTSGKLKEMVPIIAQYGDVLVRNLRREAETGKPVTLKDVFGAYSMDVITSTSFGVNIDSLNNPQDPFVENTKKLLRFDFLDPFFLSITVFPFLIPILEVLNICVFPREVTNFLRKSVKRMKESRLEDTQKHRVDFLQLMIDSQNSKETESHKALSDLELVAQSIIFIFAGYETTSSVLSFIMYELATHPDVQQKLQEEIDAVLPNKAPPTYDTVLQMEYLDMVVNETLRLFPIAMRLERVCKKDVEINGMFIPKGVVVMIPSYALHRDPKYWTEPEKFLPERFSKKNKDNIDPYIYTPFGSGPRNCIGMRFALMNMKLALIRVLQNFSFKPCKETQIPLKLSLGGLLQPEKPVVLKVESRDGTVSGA

Cn1cc(-c2ccc3c(c2)ncn3-c2ccc(CC(=O)Nc3cc(C(C)(C)C)on3)cc2)cn1 [Pz-1, N-(5-(tert-butyl)isoxazol-3-yl)-2-(4-(5-(1-methyl-1H-pyrazol-4-yl)-1H-benzo[d]imidazol-1-yl)phenyl)acetamide]
formation of tumors driven by the HRAS oncogene [1]: only reduced, but did not abrogate
IC50 (CYP3A4): 7.4 µM

— patent publication US9988371B2, “Benzimidazole analogues and related methods” (The Arizona Board of Regents, on Behalf of the University …, priority 2014, dated 2018)
